From ChEMBL document CHEMBL6178017, “Intercepting the Downstream of the Estrogen Receptor Signaling Pathway: Discovery of a Potent and Efficient SRC-3 PROTAC Degrader for Overcoming Endocrine Resistance Breast Cancer” (J Med Chem, 2025)
Activity calls are given as the source filed them. The rule behind the calls is not given here.

Columns and labels:
[1] = target: Cereblon/Casein kinase I alpha (Homo sapiens) (UniProt P48729+Q96SW2); assay: PROTAC activity at CRBN/CK-1 alpha in tamoxifen-resistant human LCC2 cells assessed as degradation of CK-1alpha at 10 uM measured after 36 hrs by diaPASEF-based quantitative proteomics analysis; settings: Tamoxifen-resistant LCC2 cell
Cereblon/Casein kinase I alpha (Homo sapiens), sequence (P48729 2-337 limits assumed): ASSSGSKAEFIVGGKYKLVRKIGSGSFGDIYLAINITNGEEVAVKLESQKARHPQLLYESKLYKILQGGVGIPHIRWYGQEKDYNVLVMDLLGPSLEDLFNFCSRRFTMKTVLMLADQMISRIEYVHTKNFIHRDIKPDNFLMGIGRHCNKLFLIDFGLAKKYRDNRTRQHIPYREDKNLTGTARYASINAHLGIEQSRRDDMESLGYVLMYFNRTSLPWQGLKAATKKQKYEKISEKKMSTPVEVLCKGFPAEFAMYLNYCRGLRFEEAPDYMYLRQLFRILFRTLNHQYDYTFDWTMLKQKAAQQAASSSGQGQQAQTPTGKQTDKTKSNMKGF
Cereblon/Casein kinase I alpha (Homo sapiens), sequence (Q96SW2 whole entry partner): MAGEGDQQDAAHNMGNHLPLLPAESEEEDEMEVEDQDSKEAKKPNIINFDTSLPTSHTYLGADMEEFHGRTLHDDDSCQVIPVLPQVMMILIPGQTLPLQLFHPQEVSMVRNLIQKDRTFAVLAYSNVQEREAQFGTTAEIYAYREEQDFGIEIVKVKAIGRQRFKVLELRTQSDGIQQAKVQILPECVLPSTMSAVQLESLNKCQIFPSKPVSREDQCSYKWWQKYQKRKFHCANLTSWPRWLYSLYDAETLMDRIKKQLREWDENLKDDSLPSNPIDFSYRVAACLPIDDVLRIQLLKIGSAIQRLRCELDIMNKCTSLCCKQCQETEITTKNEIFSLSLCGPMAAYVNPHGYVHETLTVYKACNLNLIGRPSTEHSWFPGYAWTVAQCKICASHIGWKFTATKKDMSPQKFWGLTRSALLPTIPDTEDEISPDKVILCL

[2] = target: T1, Protein cereblon/Nuclear receptor coactivator 3 (Homo sapiens, UniProt Q9Y6Q9+Q96SW2); assay: PROTAC activity at CRBN/SRC-3 in human MCF-7 cells harboring D538G mutant assessed as induction of SRC-3 degradation measured after 36 hrs by immunoblot analysis; format: cell-based; settings: MCF7, dose 0.01-10 µM
T1 sequence (Q96SW2 whole entry partner): as above
T1 sequence (Q9Y6Q9 2-1424 limits assumed): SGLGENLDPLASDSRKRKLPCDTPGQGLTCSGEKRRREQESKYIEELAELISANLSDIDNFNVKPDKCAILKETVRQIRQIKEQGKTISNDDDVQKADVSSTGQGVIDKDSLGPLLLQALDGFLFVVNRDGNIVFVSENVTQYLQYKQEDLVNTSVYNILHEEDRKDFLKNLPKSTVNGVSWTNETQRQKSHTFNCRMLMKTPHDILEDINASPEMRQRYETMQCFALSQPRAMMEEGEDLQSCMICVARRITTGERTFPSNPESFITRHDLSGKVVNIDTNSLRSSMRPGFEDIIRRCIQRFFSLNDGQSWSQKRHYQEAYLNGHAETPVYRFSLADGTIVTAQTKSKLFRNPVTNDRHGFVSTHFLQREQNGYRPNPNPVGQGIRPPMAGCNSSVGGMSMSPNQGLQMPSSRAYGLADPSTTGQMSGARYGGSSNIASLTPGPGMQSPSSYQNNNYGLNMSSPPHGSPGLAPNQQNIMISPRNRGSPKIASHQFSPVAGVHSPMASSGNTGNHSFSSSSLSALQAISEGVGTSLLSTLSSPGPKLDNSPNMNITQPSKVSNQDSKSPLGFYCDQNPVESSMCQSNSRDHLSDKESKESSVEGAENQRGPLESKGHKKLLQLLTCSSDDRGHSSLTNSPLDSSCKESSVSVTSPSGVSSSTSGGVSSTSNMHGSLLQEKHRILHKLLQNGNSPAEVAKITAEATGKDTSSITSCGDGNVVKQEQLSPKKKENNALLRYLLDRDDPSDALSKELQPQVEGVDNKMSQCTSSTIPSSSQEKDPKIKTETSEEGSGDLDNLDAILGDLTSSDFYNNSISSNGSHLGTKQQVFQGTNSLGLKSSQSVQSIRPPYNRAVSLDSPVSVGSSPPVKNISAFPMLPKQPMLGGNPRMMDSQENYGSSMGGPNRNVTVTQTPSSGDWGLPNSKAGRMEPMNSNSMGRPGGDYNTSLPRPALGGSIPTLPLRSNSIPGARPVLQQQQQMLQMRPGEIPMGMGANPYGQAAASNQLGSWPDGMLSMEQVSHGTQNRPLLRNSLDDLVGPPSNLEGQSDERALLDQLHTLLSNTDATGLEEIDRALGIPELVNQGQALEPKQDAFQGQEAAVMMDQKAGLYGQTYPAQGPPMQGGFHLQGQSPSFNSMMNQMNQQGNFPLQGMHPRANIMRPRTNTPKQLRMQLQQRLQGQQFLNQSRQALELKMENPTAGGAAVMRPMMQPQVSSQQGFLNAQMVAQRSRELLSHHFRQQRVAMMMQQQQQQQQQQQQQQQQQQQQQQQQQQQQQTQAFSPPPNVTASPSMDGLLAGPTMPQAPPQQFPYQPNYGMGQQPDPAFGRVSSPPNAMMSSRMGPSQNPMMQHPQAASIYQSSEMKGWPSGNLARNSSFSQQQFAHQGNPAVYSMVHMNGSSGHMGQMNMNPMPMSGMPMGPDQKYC

[3] = Toxicity against Balb/c mouse xenografted with tamoxifen-resistant human LCC2 cells assessed as effect on spleen pathological changes at 3 to 5 uM/Kg, ip administered once every 2 days for 23 days and measured on day 25 by Hematoxylin-Eosin based […] staining analysis; format: organism-based; settings: in vivo, 600 h, dose 3-5 µM/Kg, time 25 day
[4] = test system: Tamoxifen-resistant LCC2 cell; assay: Antitumor activity against tamoxifen-resistant human LCC2 cells xenografted in Balb/c mouse assessed as reduction in Ki67 expression in tumor tissues at 5 uM/Kg, ip administered once every 2 days for 23 days and measured on day 25 by Hematoxylin-Eosin staining based immunohistochemical staining analysis; format: functional, organism-based; settings: time 25.0 day
[5] = Half life in Balb/c mouse at 20 mg/kg, po by LC-MS/MS analysis; format: ADME, organism-based; settings: in vivo
[6] = Induction of cell cycle arrest in tamoxifen-resistant human LCC2 cells assessed as accumulation of cells at G2/M phase at 5 uM incubated for 48 hrs by propidium iodide staining based flow cytometry (reference value: 11.42%); format: functional
[7] = Metabolic stability of the compound in human plasma measured after 2 hrs by LC-MS/MS analysis; format: ADME, cell-free; settings: read-out: Stability
[8] = test system: Mus musculus; assay: In vivo PROTAC activity at CRBN/SRC-3 in Balb/c mouse xenografted with tamoxifen-resistant human LCC2 cells assessed as induction of SRC-3 degradation in tumor tissues at 3 uM/Kg, ip administered once every 2 days for 23 days and measured on day 25 by western blot analysis; format: functional, organism-based; settings: time 25.0 day
[9] = target: Protein cereblon/Nuclear receptor coactivator 2 (Homo sapiens) (UniProt Q15596+Q96SW2); assay: PROTAC activity at CRBN/SRC-2 in human MCF7 cells assessed as induction of SRC-2 degradation at 0.01 to 10 uM measured after 36 hrs by immunoblot analysis; format: cell-based; settings: dose 0.01-10 µM
Protein cereblon/Nuclear receptor coactivator 2 (Homo sapiens), sequence (Q15596 whole entry, looked up): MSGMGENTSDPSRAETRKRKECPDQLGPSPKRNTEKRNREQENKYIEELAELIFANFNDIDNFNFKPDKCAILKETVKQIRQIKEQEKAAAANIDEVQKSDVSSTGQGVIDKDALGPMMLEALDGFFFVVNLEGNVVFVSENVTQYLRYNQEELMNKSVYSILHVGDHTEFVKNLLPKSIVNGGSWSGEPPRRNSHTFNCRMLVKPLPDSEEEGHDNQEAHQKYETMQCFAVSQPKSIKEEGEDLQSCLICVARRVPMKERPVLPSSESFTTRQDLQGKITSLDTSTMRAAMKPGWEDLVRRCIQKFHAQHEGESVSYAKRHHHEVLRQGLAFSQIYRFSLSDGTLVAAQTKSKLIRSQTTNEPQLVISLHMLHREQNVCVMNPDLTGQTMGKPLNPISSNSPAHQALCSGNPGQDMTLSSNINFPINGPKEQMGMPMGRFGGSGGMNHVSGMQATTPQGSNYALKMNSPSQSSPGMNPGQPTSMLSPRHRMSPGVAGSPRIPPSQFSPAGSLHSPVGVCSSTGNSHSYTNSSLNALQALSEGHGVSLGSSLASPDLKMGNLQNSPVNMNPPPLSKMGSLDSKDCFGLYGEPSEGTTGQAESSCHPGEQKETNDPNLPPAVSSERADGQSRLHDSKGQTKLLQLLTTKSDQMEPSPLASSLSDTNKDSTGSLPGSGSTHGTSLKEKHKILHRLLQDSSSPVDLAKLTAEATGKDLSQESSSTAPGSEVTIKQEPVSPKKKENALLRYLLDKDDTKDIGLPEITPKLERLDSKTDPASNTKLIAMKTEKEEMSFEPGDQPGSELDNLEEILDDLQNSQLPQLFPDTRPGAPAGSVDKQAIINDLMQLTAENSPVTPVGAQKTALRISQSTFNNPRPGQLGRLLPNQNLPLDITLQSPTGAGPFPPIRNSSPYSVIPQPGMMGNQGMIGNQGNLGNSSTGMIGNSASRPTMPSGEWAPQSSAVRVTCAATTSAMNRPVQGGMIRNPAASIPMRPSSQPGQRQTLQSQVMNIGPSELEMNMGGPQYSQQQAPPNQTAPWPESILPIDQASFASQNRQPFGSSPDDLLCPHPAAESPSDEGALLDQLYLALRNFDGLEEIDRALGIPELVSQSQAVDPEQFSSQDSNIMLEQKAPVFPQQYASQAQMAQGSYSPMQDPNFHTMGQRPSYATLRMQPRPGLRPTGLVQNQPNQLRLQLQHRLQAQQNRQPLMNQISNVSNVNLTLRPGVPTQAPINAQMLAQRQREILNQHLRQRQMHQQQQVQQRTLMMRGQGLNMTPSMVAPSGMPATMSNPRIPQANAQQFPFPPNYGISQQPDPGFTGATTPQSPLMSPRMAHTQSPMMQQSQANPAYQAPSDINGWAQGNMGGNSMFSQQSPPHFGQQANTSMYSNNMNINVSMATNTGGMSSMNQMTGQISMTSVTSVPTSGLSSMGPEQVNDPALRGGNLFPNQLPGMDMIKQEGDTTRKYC
Protein cereblon/Nuclear receptor coactivator 2 (Homo sapiens), sequence (Q96SW2 whole entry, looked up): as the sequence (Q96SW2 whole entry partner) above

[10] = AUC(0 to infinity) in Balb/c mouse at 2 mg/kg, iv by LC-MS/MS analysis; format: ADME, organism-based; settings: in vivo
[11] = target: T1, Protein cereblon/Nuclear receptor coactivator 3; assay: PROTAC activity at CRBN/SRC-3 in tamoxifen-resistant human LCC2 cells assessed as induction of SRC-3 degradation at 0.1 to 10 uM incubated for 24 hrs by immunoblot analysis; format: cell-based; settings: Tamoxifen-resistant LCC2 cell, dose 0.1-10 µM
[12] = target: T1, Protein cereblon/Nuclear receptor coactivator 3; assay: PROTAC activity at CRBN/SRC-3 in human MCF7 cells assessed as induction of SRC-3 degradation at 1 uM incubated for 24 hrs by immunoblot analysis relative to control; format: cell-based
[13] = target: T1, Protein cereblon/Nuclear receptor coactivator 3; assay: PROTAC activity at CRBN/SRC-3 in human MCF7 cells assessed as induction of SRC-3 degradation at 1 uM preincubated with proteasome inhibitor, bortezomib for 2 hrs followed by incubation with compound and measured after 36 hrs by immunoblot analysis; format: cell-based
[14] = target: T1, Protein cereblon/Nuclear receptor coactivator 3; assay: PROTAC activity at CRBN/SRC-3 in tamoxifen-resistant human LCC2 cells assessed as induction of SRC-3 degradation at 1 uM preincubated with autophagy inhibitor, choloroquine for 2 hrs followed by incubation with compound and measured after 36 hrs by immunoblot analysis; format: cell-based; settings: Tamoxifen-resistant LCC2 cell
[15] = target: T1, Protein cereblon/Nuclear receptor coactivator 3; assay: PROTAC activity at CRBN/SRC-3 in tamoxifen-resistant human LCC2 cells assessed as induction of SRC-3 degradation at 1 uM preincubated with proteasome inhibitor, bortezomib for 2 hrs followed by incubation with compound and measured after 36 hrs by immunoblot analysis; format: cell-based; settings: Tamoxifen-resistant LCC2 cell
[16] = target: Cytochrome P450 2C9 (Homo sapiens, UniProt P11712); assay: Inhibition of CYP2C9 (unknown origin) using diclofenac as substrate; format: ADME
Cytochrome P450 2C9, sequence (P11712 whole entry): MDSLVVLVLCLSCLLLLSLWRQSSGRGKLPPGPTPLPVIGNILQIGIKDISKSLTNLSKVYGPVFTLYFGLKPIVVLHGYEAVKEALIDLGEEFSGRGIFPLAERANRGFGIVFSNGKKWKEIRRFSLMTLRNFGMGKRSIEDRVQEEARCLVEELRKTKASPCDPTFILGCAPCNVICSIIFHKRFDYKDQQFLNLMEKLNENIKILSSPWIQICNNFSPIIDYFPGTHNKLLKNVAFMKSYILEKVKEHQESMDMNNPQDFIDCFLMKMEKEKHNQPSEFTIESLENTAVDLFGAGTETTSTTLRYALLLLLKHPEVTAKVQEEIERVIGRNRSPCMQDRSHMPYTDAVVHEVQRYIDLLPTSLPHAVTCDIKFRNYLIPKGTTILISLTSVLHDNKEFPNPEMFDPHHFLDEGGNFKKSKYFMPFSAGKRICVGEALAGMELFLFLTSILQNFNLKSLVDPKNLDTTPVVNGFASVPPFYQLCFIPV

[17] = target: T1, Protein cereblon/Nuclear receptor coactivator 3; assay: PROTAC activity at CRBN/SRC-3 in human MCF7 cells assessed as induction of SRC-3 degradation at 1 uM preincubated with proteasome inhibitor, MG-132 for 2 hrs followed by incubation with compound and measured after 36 hrs by immunoblot analysis; format: cell-based
[18] = Half life of the compound in human plasma by LC-MS/MS analysis; format: ADME, cell-free
[19] = Toxicity against Balb/c mouse xenografted with tamoxifen-resistant human LCC2 cells assessed as effect on body weight at 10 uM/Kg, ip administered once every 2 days for 23 days; format: organism-based; settings: in vivo, 552 h, time 23 day
[20] = target: T1, Protein cereblon/Nuclear receptor coactivator 3; assay: PROTAC activity at CRBN/SRC-3 in human MCF7 cells assessed as induction of AR degradation at 0.01 to 5 uM incubated for 24 hrs by immunoblot analysis; format: cell-based; settings: dose 0.01-5 µM
[21] = target: T1, Protein cereblon/Nuclear receptor coactivator 3; assay: PROTAC activity at CRBN/SRC-3 in human MCF7 assessed as induction of ER-alpha degradation at 0.1 to 10 uM incubated for 24 hrs by immunoblot analysis; format: cell-based; settings: dose 0.1-10 µM
[22] = Induction of apoptosis in tamoxifen-resistant human LCC2 cells assessed as viable cells at 20 uM incubated for 48 hrs by AnnexinV-FITC/PI staining based flow cytometry (reference value: 88.09%); format: functional; settings: Tamoxifen-resistant LCC2 cell, read-out: Activity
[23] = Bioavailability in Balb/c mouse at 4 mg/kg, ip by LC-MS/MS analysis; format: ADME, organism-based; settings: in vivo
[24] = Cmax in Balb/c mouse at 4 mg/kg, ip by LC-MS/MS analysis; format: ADME, organism-based; settings: in vivo
[25] = test system: MCF7; assay: Antiproliferative activity against human MCF7 cells harboring ER-alpha D538G mutant assessed as inhibition of cell growth by CCK8 assay; format: functional, cell-based
[26] = target: T1, Protein cereblon/Nuclear receptor coactivator 3; assay: PROTAC activity at CRBN/SRC-3 in tamoxifen-resistant human LCC2 cells assessed as induction of SRC-3 degradation at 1 uM preincubated with CRBN ligand-pomolidomide for 2 hrs followed by incubation with compound and measured after 36 hrs by immunoblot analysis; format: cell-based; settings: Tamoxifen-resistant LCC2 cell
[27] = Induction of apoptosis in tamoxifen-resistant human LCC2 cells assessed as necrotic cells at 5 uM incubated for 48 hrs by AnnexinV-FITC/PI staining based flow cytometry (reference value: 1.16%); format: functional, Tamoxifen-resistant LCC2 cell
[28] = target: T1, Protein cereblon/Nuclear receptor coactivator 3; assay: Binding affinity to CRBN/SRC-3 in human MCF7 cells assessed as CRBN/compound/SRC-3 ternary complex formation by measuring increase in yellow fluorescence intensity at 10 uM incubated for 6 hrs by immunofluorescence analysis; format: cell-based
[29] = Induction of cell cycle arrest in tamoxifen-resistant human LCC2 cells assessed as accumulation of cells at G2/M phase at 10 uM incubated for 48 hrs by propidium iodide staining based flow cytometry (reference value: 11.42%); format: functional
[30] = Induction of apoptosis in tamoxifen-resistant human LCC2 cells assessed as early apoptotic cells at 10 uM incubated for 48 hrs by AnnexinV-FITC/PI staining based flow cytometry (reference value: 5.92%); format: functional, Tamoxifen-resistant LCC2 cell
[31] = Induction of apoptosis in tamoxifen-resistant human LCC2 cells assessed as late apoptotic cells at 20 uM incubated for 48 hrs by AnnexinV-FITC/PI staining based flow cytometry (reference value: 4.83%); format: functional, Tamoxifen-resistant LCC2 cell

C/C(=N\Nc1nc2ccccc2n1C1CN(C2CCN(c3cccc4c3C(=O)N(C3CCC(=O)NC3=O)C4=O)CC2)C1)c1ccccn1 (stereo unspecified)
Activity [1]: inactive | Activity [2]: Dose-dependent-effect | Activity [3]: Non-toxic | Activity [4]: Active | half-life [5]: 4.49 h | Activity [6]: 4.62% | remaining at 2 h [7]: > 50% | Activity [8]: Active | Activity [9]: Active; Minimal Activity Against Src-2 Compared To Src-3 Observed | AUC(0-inf) [10]: 367 ng·h/mL | Activity [11]: Active | Activity [12]: 71% | Activity [13]: inactive | Activity [14]: Active | Activity [15]: inactive | IC50 [16]: > 10000 nM | Activity [17]: inactive | half-life [18]: 35.6 h | Activity [19]: Non-toxic | Activity [20]: Active; Downregulation Effect Is Not As Pronounced As Er-Alpha | Activity [21]: Active | viability at 20 µM [22]: 42.7% | bioavailability [23]: 8% | Cmax [24]: 31.2 ng/mL | IC50 [25]: 150 nM | Activity [26]: inactive | Activity [27]: 10.46% | Activity [28]: Active | Activity [29]: 3.83% | Activity [30]: 24.23% | Activity [31]: 14.47%
